Experimental data published in ChEMBL document CHEMBL4311995, “Discovery and development of extreme selective inhibitors of the ITD and D835Y mutant FLT3 kinases” (Eur J Med Chem, 2019).
≈ marks a conversion by molar mass, not a printed value.

Assays:
cells = type: ADME, cell-based; conditions: Homo sapiens, HS5, 72 h
physchem [1] = conditions: buffer, pH 2
K562 = assay: cells; type: functional, cell-based; conditions: Homo sapiens, K562, 72 h
in vitro = conditions: PAMPA, pH 7.4
physchem [2] = conditions: buffer, pH 7.4
U-937 = assay: cells; type: functional, cell-based; conditions: Homo sapiens, U-937, 72 h
MV4-11 = assay: cells; type: functional, cell-based; conditions: Homo sapiens, MV4-11, 72 h

IC50 (cells) [µM]	solubility kinetic at 24 h (physchem [1]) [µM]	IC50 (K562) [µM]	Papp at 5 h (in vitro) [×10⁻⁶ cm/s]	solubility kinetic at 24 h (physchem [2]) [µM]	IC50 (U-937) [µM]	IC50 (MV4-11) [µM]	SMILES
4	119 (≈ 43.4 µg/mL)	5.21	5.86	116 (≈ 42.3 µg/mL)	–	–	CSc1ccc(/C=C/c2nc(NCCN(C)C)c3ccccc3n2)cc1
3.28	119 (≈ 45 µg/mL)	4.03	3.38	5 (≈ 1.89 µg/mL)	4.1	0.06	CC(C)c1ccc(/C=C/c2nc(NCCN(C)C)c3cc(F)ccc3n2)cc1
3.03	110 (≈ 43.4 µg/mL)	2.87	0.73	12 (≈ 4.74 µg/mL)	–	–	CC(C)c1ccc(/C=C/c2nc(NCCN(C)C)c3cc(Cl)ccc3n2)cc1
2.07	96 (≈ 45.1 µg/mL)	4.03	5.35	96 (≈ 45.1 µg/mL)	6.36	–	CCN(CC)CCCNc1nc(/C=C/c2ccc(OC)cc2)nc2ccc(Br)cc12
4.09	115 (≈ 52.8 µg/mL)	2.59	0.56	12 (≈ 5.51 µg/mL)	4.95	0.04	CCN(CC)CCNc1nc(/C=C/c2ccc(S(C)(=O)=O)cc2)nc2ccc(Cl)cc12
6.37	120 (≈ 40.4 µg/mL)	5.81	9.61	10 (≈ 3.36 µg/mL)	10.9	–	CN(C)CCNc1nc(/C=C/c2ccc(F)cc2)nc2ccccc12
4.03	111 (≈ 49.4 µg/mL)	4.84	0.61	23 (≈ 10.2 µg/mL)	9.02	–	CN(C)CCCNc1nc(/C=C/c2ccc(S(C)(=O)=O)cc2)nc2ccc(Cl)cc12
4.76	112 (≈ 48.3 µg/mL)	6.94	0.36	8 (≈ 3.45 µg/mL)	12.3	–	CN(C)CCNc1nc(/C=C/c2ccc(S(C)(=O)=O)cc2)nc2ccc(Cl)cc12
3.36	120 (≈ 48.8 µg/mL)	2.12	1.74	36 (≈ 14.6 µg/mL)	4.11	–	CCN(CC)CCNc1nc(/C=C/c2ccc(C(C)C)cc2)nc2ccc(F)cc12
11.4	–	9.21	–	–	19.8	0.06	COc1cc2c(N3CCN(C(=O)Nc4ccc(OC(C)C)cc4)CC3)ncnc2cc1OCCCN1CCCCC1 [TANDUTINIB]
